B1: G-CSF: granulocyte colony stimulating factor, stem cell mobilizer (protein, UniProt P09919 31-207, looked up)
Granulocyte …: TPLGPASSLPQSFLLKCLEQVRKIQGDGAALQEKLVSECATYKLCHPEELVLLGHSLGIPWAPLSSCPSQALQLAGCLSQLHSGLFLYQGLLQALEGISPELGPTLDTLQLDVADFATTIWQQMEELGMAPALQPTQGAMPAFASAFQRRAGGVLVASHLQSFLEVSYRVLRHLAQP

How the values were obtained:
C57BL/6 mice = assay: Rodent model of acute liver failure: CCl4 dose finding (survival, serum transaminases); format: in vivo
Procedure: FIG. 1A-1C describes mortality and hepatic injury after injection of carbon tetrachloride (CCl4). FIG. 1A is a graph showing percent survival over four days among groups (n=10) of mice administered intraperitoneal injections of CCL4 at doses of 2 ml/kg (solid line), 3 ml/kg (dashed line), 4 ml/kg (diamond markers), or 4.5 ml/kg (circle markers). FIG. 1B is a graph displaying peak liver function test (LF) results, specifically, serum aspartate transaminase (AST) (dark bars) and alanine transaminase (ALT) (light bars) levels in mice (n=2) 24 hrs and 96 hrs after intraperitoneal injection of CCL4 at 4 ml/kg compared to baseline levels in uninjected animals (0 hrs).
Rodent models of Acute Liver Failure.
The large majority of animals in this group were transiently ill but rapidly regained vigor. […] A dose of 4 ml/kg would result in about 60% to 100% mortality among the animals over the course of three to seven days. Slight adjustments in the dose (i.e., 4.5 ml/kg) at this level would have obvious effects on mortality with all animals succumbing within 24-48 hours.
A dose of 4 ml/kg was eventually selected for the final model. Mortality with this dose was typically about 80% around five days and was preceded by a significant elevation in serum transaminases. AST and ALT levels peaked at approximately 5,000 on day one to two after injury (FIG. 1B).

[1] = test system: CD34+ HSCs / peripheral white blood cells; assay: HSC mobilization in rats, flow cytometric analysis of peripheral blood; format: in vivo; conditions: for peripheral CD34+ absolute count / total lymphocyte count: single dose; for average total WBC: single sc dose (plerixafor 2 mg/kg, G-CSF 300 μg/kg), n=3
Procedure: Rats (n=3 per treatment group) were administered a single dose of plerixafor (2 mg/kg), G-CSF (300 μg/kg) or both. In FIG. 2A, peripheral total white blood cell (WBC) count, total lymphocytes, and CD34^+ cells were measured in […] by FACS analysis at 1 hr and 6 hrs after injection. […] See Mozobil (plerixafor injection) Product Monograph 2009 (Genzyme Corporation, Cambridge, Mass.).
Mobilization of HSCs. For HSC mobilization, plerixafor and G-CSF were administered by subcutaneous injection at weight-based doses consistent with those that have proven effective in human clinical trials or as has been used previously by the present inventors (plerixafor, 2 mg/kg/dose; G-CSF 300 μg/kg/dose). Plerixafor and G-CSF were administered 12-hours following CCl4 injection, in treatment groups comprised of eight to ten animals. Control treatment groups were administered an injection with an equivalent volume of saline.
Flow Cytometric Analysis of Peripheral Blood. Following HSC mobilization, animals were sacrificed at either one or six hours post treatment and blood was collected. Leukocyte suspensions (1×10^6) of peripheral blood were analyzed for CD34, Thy-1 and c-Kit expression. Nonspecific antibody binding was blocked with mouse and donkey serum (Sigma) for 30 minutes. The cells were incubated with Alexa Fluor 647 conjugated mouse anti-rat CD34 (1:10) (Santa Cruz Biotechnology), fluorescein isothiocyanate (FITC)-conjugated mouse anti-rat CD90 (Thy-1, 1:100) (BD Pharmingen), and rabbit anti-rat c-Kit (1:100) (Santa Cruz Biotechnology) for 45 minutes at 4° C., followed by phycoerythrin (PE)-conjugated donkey anti-rabbit IgG (1:200) (eBioscience) for 30 minutes at 4° C. The CD34, Thy-1 and c-Kit positive cells were counted by flow cytometry using CELLQuest software (Becton-Dickinson).

CXCR4 receptor = conditions: mutated receptor (not named); cited from earlier work
[2] = test system: human immunodeficiency virus (HIV); conditions: cited from earlier work
[3] = test system: CD34+ stem cells in peripheral blood; conditions: pigs
Procedure: The dosage of plerixafor used in swine transplants was based on the experiments in rats. It is possible that the effective dosage of plerixafor will differ among species. The efficacy of plerixafor was tested in non-transplanted pigs and blood cell count and flow cytometric analysis were used to measure CD34^+ stem cells in peripheral blood.

CD34+ cells / HSCs = conditions: healthy volunteers; cited from earlier work
[4] = CCl4 4 ml/kg, day one to two after injury

Row | Molecule | mortalities per ten animals (C57BL/6 mice; CCl4 2 ml/kg intraperitoneal, within first one to two days) | mortality (C57BL/6 mice; CCl4 4 ml/kg, around five days) | peak serum ALT level (C57BL/6 mice; [4]) | peak serum AST level (C57BL/6 mice; [4]) | time within which all animals succumbed (C57BL/6 mice; CCl4 4.5 ml/kg) | peripheral CD34+ absolute count ([1]; one hour) | total lymphocyte count ([1]; one hour) | peripheral CD34+ absolute count ([1]; six hours) | total lymphocyte count ([1]; six hours) | average total WBC ([1]; 1 hour) | average total WBC ([1]; 6 hours) | affinity of mutated receptor relative to affinity in CXCR4 (CXCR4 receptor) | increase in affinity after introduction of Glu at VII:06 and removal of Lys at VII:02 (CXCR4 receptor) | anti-HIV efficacy in vivo [2] | time of peak CD34+ cell levels ([3]; after subcutaneous injection) | difference in number of CD34+ cells between 1 mg/kg and 2 mg/kg ([3]; at 2, 3 and 6 hours after injection) | absolute number of CD34+ cells per ml blood ([3]; subcutaneous injection, time-dependent) | mobilization of HSCs to the periphery (CD34+ cells / HSCs)
1 | ClC(Cl)(Cl)Cl [CCL4, carbon tetrachloride] | one or two | about 80% | approximately 5,000 | approximately 5,000 | 24 to 48 h |  |  |  |  |  |  |  |  |  |  |  |  | 
2 | c1cc(CN2CCCNCCNCCCNCC2)ccc1CN1CCCNCCNCCCNCC1 [plerixafor, 1,1′-[1,4-phenylenebis(methylene)]bis-1,4,8,11-tetraazacyclo-tetradecane] |  |  |  |  |  | 333 cells/ml | 4,400 | 135 cells/ml | 4,800 | 6,100 | 7,300 | ≤ 10 fold | 1000 fold | not an effective anti-HIV agent | 3 h | no significant difference | significantly increased | massive mobilization
3 | B1 |  |  |  |  |  | 216 cells/ml | 2,000 | 238 cells/ml | 4,100 | 3,300 | 7,800 |  |  |  |  |  |  | 

Source: US10086045B2, “Methods of treatment using stem cell mobilizers” (THE JOHNS HOPKINS UNIVERSITY, priority 2010, dated 2018)
